In brackets after ≈: the same amount, converted by molar mass.
How the values were obtained:
[1] = Hygroscopicity / water re-absorption at controlled relative humidity (DVS); type: physicochemical
From the text: The present invention is directed, inter alia, to crystalline forms of (R)—N-(4-(3-aminopiperidin-1-yl)-5-bromo-1H-pyrrolo[2,3-b]pyridin-3-yl)cyclopropanecarboxamide and salts, hydrates, and solvates thereof. The crystalline forms of the present invention can be identified by unique solid state signatures with respect to, for example, differential scanning calorimetry (DSC), X-ray powder diffraction (XRPD), and other solid state methods. Further characterization with respect to water or solvent content of the crystalline forms of the present invention can be gauged by any of the following methods for example, thermogravimetric analysis (TGA), DSC and the like. For DSC, it is known that the temperatures observed will depend upon sample purity, the rate of temperature change, as well as sample preparation technique and the particular instrument employed. Thus, the values reported herein relating to DSC thermograms can vary by about ±6° C. For desolvation events, DSC thermograms may vary by more than ±6° C. depending on instrument configuration and/or sample quantity. The values reported herein relating to DSC thermograms can also vary by about ±20 joules per gram. For XRPD, the relative intensities of the peaks can vary, depending upon the sample preparation technique, the sample mounting procedure and the particular instrument employed. Moreover, instrument variation and other factors can often affect the 2θ values. Therefore, the peak assignments of diffraction patterns can vary by about ±0.2 ° 2θ. The relative intensities of the reported peaks can also vary. For TGA, the features reported herein can vary by about ±5° C. The TGA features reported herein can also vary by about ±2% weight change due to, for example, sample variation. Further characterization with respect to hygroscopicity of the crystalline form can be gauged by, for example, dynamic vapor sorption (DVS). The DVS features reported herein can vary by about ±5% relative humidity. The DVS features reported herein can also vary by about ±5% weight change.
(R)—N-(4-(3-aminopiperidin-1-yl)-5-bromo-1H-pyrrolo[2,3-b]pyridin-3-yl)cyclopropanecarboxamide di-ethane sulfonic acid salt: (R)—N-(4-(3-aminopiperidin-1-yl)-5-bromo-1H-pyrrolo[2,3-b]pyridin-3-yl)cyclopropanecarboxamide di-ethanesulfonic acid salt hydrate was heated to 130° C. in a DSC apparatus and then cooled to room temperature. […] The physical properties of the non-solvated di-esylate salt of (R)—N-(4-(3-aminopiperidin-1-yl)-5-bromo-1H-pyrrolo[2,3-b]pyridin-3-yl)cyclopropanecarboxamide are summarized in Table 50 below.

[2] = Oral absorption of PiC formulations versus solution, preclinical pharmacokinetic study; type: in vivo; details: canines, 3 mg/kg, crossover
Protocol: Biological characteristics of (R)—N-(4-(3-aminopiperidin-1-yl)-5-bromo-1H-pyrrolo[2,3-b]pyridin-3-yl)cyclopropanecarboxamide free base (Form A) and maleate salt crystal forms: The oral absorption of the crystal forms described in Examples 4 and 27 as PiC formulations was investigated in a preclinical pharmacokinetic study conducted in canines using a reduced Latin square crossover design at 3 mg/kg to compare the solid formulations to a solution of (R)—N-(4-(3-aminopiperidin-1-yl)-5-bromo-1H-pyrrolo[2,3-b]pyridin-3-yl)cyclopropanecarboxamide.

[3] = Powder-in-Capsule (PiC) formulation stability; type: physicochemical; details: 15 mg in Size 0 hard gelatin capsules, 2-months at 5° C., ambient and accelerated conditions
Protocol: (§1) Chemical characteristics of (R)—N-(4-(3-aminopiperidin-1-yl)-5-bromo-1H-pyrrolo[2,3-b]pyridin-3-yl)cyclopropanecarboxamide free base (Form A) and maleate salt crystal forms: The stability of the crystal forms described in Examples 4 and 27 was measured neat as well as in a Powder-in-Capsule (PiC) formulation. The stability as neat powder was measured over a period of 1-year for the free base and 3-months for the maleate salt, under ambient (25° C./60% RH) and accelerated (40° C./75% RH) conditions. […] It should be noted that the maleate salt used in the neat powder stability study contained high levels (˜9% wt./wt.) of residual tetrahydrofuran (THF). The PiC stability using 15 mg of (R)—N-(4-(3-aminopiperidin-1-yl)-5-bromo-1H-pyrrolo[2,3-b]pyridin-3-yl)cyclopropanecarboxamide in Size 0 hard gelatin capsules was carried out over a period of 2-months at 5° C., ambient and accelerated conditions.

[4] = Aqueous solubility; type: physicochemical
[5] = Abbreviated excipient compatibility study at 50° C. with 20% H2O added; type: physicochemical; details: 4 weeks, common diluents and disintegrants
Protocol: To further investigate the chemical properties of these crystal forms, an abbreviated excipient compatibility study was run at 50° C. with 20% H2O added. The excipients used in the study consisted of common diluents and disintegrants and the study was conducted over a period of 4 weeks.

[6] = Neat powder stability under ambient (25° C./60% RH) and accelerated (40° C./75% RH) conditions; type: physicochemical
Protocol: as §1

Cl.Cl.N[C@@H]1CCCN(c2c(Br)cnc3[nH]cc(NC(=O)C4CC4)c23)C1 [Example 29, (R)—N-(4-(3-aminopiperidin-1-yl)-5-bromo-1H-pyrrolo[2,3-b]pyridin-3-yl)cyclopropanecarboxamide di-HCl salt]
DVS form conversion ([1]; above 80% RH): dihydrate form above 80% RH. | DVS hygroscopicity ([1]; below 80% RH): Non-hygroscopic below 80% RH. Converts to a crystalline

N[C@@H]1CCCN(c2c(Br)cnc3[nH]cc(NC(=O)C4CC4)c23)C1.O=C(O)/C=C\C(=O)O [maleate salt, Maleic acid salt of (R)—N-(4-(3-aminopiperidin-1-yl)-5-bromo-1H-pyrrolo[2,3-b]pyridin-3-yl)cyclopropanecarboxamide]
Oral absorption [2]: no significant differences in absorption | PiC stability [3]: stable | Aqueous Solubility ([4]; at pH ≦7): >10 at pH ≦7 mg/mL | DVS hygroscopicity ([1]; at 80% RH): Non-hygroscopic | DVS weight gain ([1]; at 80% RH): 0.3 % wt./wt. | Degradation with excipients [5]: significant degradation with all excipients investigated | Stability as neat powder ([6]; 3-months, ambient and accelerated conditions, material contained ~9% wt./wt. residual THF): very slight degradation under accelerated conditions

Br.Br.N[C@@H]1CCCN(c2c(Br)cnc3[nH]cc(NC(=O)C4CC4)c23)C1 [Example 30, (R)—N-(4-(3-aminopiperidin-1-yl)-5-bromo-1H-pyrrolo[2,3-b]pyridin-3-yl)cyclopropanecarboxamide di-HBr salt]
DVS hygroscopicity ([1]; below 80% RH): Non-hygroscopic below 80% RH. Upon desorption the solids

N[C@@H]1CCCN(c2c(Br)cnc3[nH]cc(NC(=O)C4CC4)c23)C1 [Form A, (R)—N-(4-(3-aminopiperidin-1-yl)-5-bromo-1H-pyrrolo[2,3-b]pyridin-3-yl)cyclopropanecarboxamide Form A]
Oral absorption [2]: no significant differences in absorption | PiC stability [3]: did not cause any significant physical or chemical degradation | solubility ([4]; 0.1N HCl, simulated gastric fluid): 49900 µg/mL (≈ 132 mM) | solubility ([4]; FasSIF pH 6.8): 2400 µg/mL (≈ 6.34 mM) | solubility ([4]; fessif, FedSIF pH 5): 10200 µg/mL (≈ 27 mM) | solubility ([4]; water, H2O): 120 µg/mL (≈ 0.317 mM) | Degradation with excipients ([5]; listed as free base): significant degradation with lactose and Ac-Di-Sol® (croscarmellose sodium) | Degradation with excipients ([5]; listed as free base Form A): more stable with excipients than the maleate salt | Stability as neat powder ([6]; 1-year, ambient (25° C./60% RH) and accelerated (40° C./75% RH)): very good stability with no chiral or achiral degradation observed under any condition

CCS(=O)(=O)O.CCS(=O)(=O)O.N[C@@H]1CCCN(c2c(Br)cnc3[nH]cc(NC(=O)C4CC4)c23)C1 [anhydrate, (R)—N-(4-(3-aminopiperidin-1-yl)-5-bromo-1H-pyrrolo[2,3-b]pyridin-3-yl)cyclopropanecarboxamide di-ethane sulfonic acid salt]
Water re-absorption ([1]; 80% RH): re-absorbs water at 80% RH
